Experiment [1] has as its system Mus musculus. Kind of experiment: Gastroprotective activity in Swiss albino mouse assessed as reduction in HCl/EtOH-induced gastric lesions at 20 mg/kg, po dosed 50 mins before HCl/EtOH challenge measured after 1 hr relative to control. In kind it is functional. The following applies: Stomach.
In experiment [2] the test system is Mus musculus. Kind of experiment: Gastroprotective activity in Swiss albino mouse model of HCl/EtOH-induced ulcer assessed as lesion index at 20 mg/kg, po dosed 50 mins before HCl/EtOH challenge measured after 1 hr (reference value: 37.7 +/- 4.3 millimeter). In kind it is functional.

The inhibition in vivo is the drop in the measured response relative to a control, in per cent.

Take `CC(=O)OCC1=CC[C@]2(C)[C@H](OC(C)=O)C[C@]3(C(=O)O)[C@@H](C(C)C)CC[C@H]3[C@@H]2C=C1`: in the experiment with Mus musculus [1], the inhibition in vivo at 20 mg/kg is 48%. Moreover, the UI in the experiment on Mus musculus [2] is recorded as 19.6 mm.

On to `CC(=O)OCC1=CC[C@]2(C)CC[C@]3(C(=O)O)[C@@H](C(C)C)CC[C@H]3[C@@H]2C=C1`, for which the inhibition in vivo at 20 mg/kg in the experiment on Mus musculus [1] turned out to be 43%. Moreover, the UI in the experiment with Mus musculus [2] amounted to 21.6 mm.

Turning to `CC(C)[C@H]1CC[C@H]2[C@@H]3C=CC(CO)=CC[C@]3(C)CC[C@]12C(=O)O`, the inhibition in vivo at 20 mg/kg in the experiment on Mus musculus [1] came out at 59%. For the same compound, the UI with Mus musculus [2] was 15.4 mm.

On to `CC(C)[C@H]1CC[C@H]2[C@@H]3C=CC(CO)=CC[C@]3(C)[C@H](O)C[C@]12C(=O)O`, for which the inhibition in vivo at 20 mg/kg with Mus musculus [1] turned out to be 69%. The UI with Mus musculus [2] was 11.8 mm.

As for `COC(=O)[C@]12C[C@@H](OC(C)=O)[C@@]3(C)CC=C(COC(C)=O)C=C[C@H]3[C@@H]1CC[C@@H]2C(C)C`, the inhibition in vivo at 20 mg/kg with Mus musculus [1] was 6%. In the experiment on Mus musculus [2], the UI amounted to 35.6 mm.

For `COC(=O)[C@]12CC[C@@]3(C)CC=C(COC(C)=O)C=C[C@H]3[C@@H]1CC[C@@H]2C(C)C`, the inhibition in vivo at 20 mg/kg in the experiment on Mus musculus [1] stood at 3%. In the experiment with Mus musculus [2], the UI is reported as 36.8 mm.

For `COC(=O)[C@]12C[C@@H](O)[C@@]3(C)CC=C(CO)C=C[C@H]3[C@@H]1CC[C@@H]2C(C)C`, the inhibition in vivo at 20 mg/kg in the experiment on Mus musculus [1] is 36%. In the experiment with Mus musculus [2], the UI was determined as 24.3 mm.

As for `COC(=O)[C@]12CC[C@@]3(C)CC=C(CO)C=C[C@H]3[C@@H]1CC[C@@H]2C(C)C`, the inhibition in vivo at 20 mg/kg with Mus musculus [1] stood at 18%. In addition, the UI in the experiment on Mus musculus [2] stood at 31 mm.

Take `Cc1c(OCC(F)(F)F)ccnc1C[S+]([O-])c1nc2ccccc2[nH]1` (stereo not drawn) [LANSOPRAZOLE]: the inhibition in vivo at 20 mg/kg in the experiment with Mus musculus [1] turned out to be 57%. For the same compound, in the experiment on Mus musculus [2], the UI is recorded as 16.1 mm.
